Source: PubChem BioAssay (NCI)
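The compound was tested at five concentrations on cells cultured in 96-well plates, with a 48-hour exposure period. At the TGI there is no net growth.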

Columns and labels:
Test in all cases: inhibition of tumour cell growth, NCI panel, 48 h
A498 renal = system: A498 renal
ACHN renal = system: ACHN renal
BT-549 breast = system: BT-549 breast
CAKI-1 renal = system: CAKI-1 renal
EKVX NSCLC = system: EKVX NSCLC
HCC-2998 colon = system: HCC-2998 colon
HCT-15 colon = system: HCT-15 colon
K-562 leukemia = system: K-562 leukemia
KM12 colon = system: KM12 colon
MALME-3M melanoma = system: MALME-3M melanoma
MCF7 breast = system: MCF7 breast
MDA-MB-231 breast = system: MDA-MB-231 breast
MDA-MB-435 = system: MDA-MB-435
MOLT-4 leukemia = system: MOLT-4 leukemia
SF-268 CNS = system: SF-268 CNS
SK-MEL-2 melanoma = system: SK-MEL-2 melanoma
SK-OV-3 ovarian = system: SK-OV-3 ovarian
TK-10 renal = system: TK-10 renal
U251 CNS = system: U251 CNS

Row | Structure (SMILES) | TGI (A498 renal) [µM] | TGI (ACHN renal) [µM] | TGI (BT-549 breast) [µM] | TGI (CAKI-1 renal) [µM] | TGI (EKVX NSCLC) [µM] | TGI (HCC-2998 colon) [µM] | TGI (HCT-15 colon) [µM] | TGI (K-562 leukemia) [µM] | TGI (KM12 colon) [µM] | TGI (MALME-3M melanoma) [µM] | TGI (MCF7 breast) [µM] | TGI (MDA-MB-231 breast) [µM] | TGI (MDA-MB-435) [µM] | TGI (MOLT-4 leukemia) [µM] | TGI (SF-268 CNS) [µM] | TGI (SK-MEL-2 melanoma) [µM] | TGI (SK-OV-3 ovarian) [µM] | TGI (TK-10 renal) [µM] | TGI (U251 CNS) [µM]
1 | c1ccc(C2C3=C(c4ccccc4CC3)N3c4cc5nc6ccccc6nc5cc4NC34CCCCC24)cc1 (stereo not given) | > 10 | > 10 | > 10 | > 10 | > 10 | > 10 | > 10 | > 10 | > 10 | > 10 | > 10 | > 10 | > 10 | > 8.19 | > 10 | > 10 | > 10 | > 10 | > 10
2 | CCN(CC)CCOc1ccc(N2Cc3cc(OC)c(OC)cc3C2=O)cc1 | > 100 | > 100 | > 100 | > 100 | > 100 | > 100 | > 100 | > 100 | > 100 | > 100 | > 100 | > 100 | > 100 | > 100 | > 100 | > 100 | > 100 | > 100 | > 100
3 | C=CC[C@H](O)[C@@](NC(=O)OCc1ccccc1)(Sc1ccc(C)cc1)C(F)(F)F | > 100 | > 100 | 29.4 | 87.7 | > 100 | > 100 | > 100 | > 100 | > 100 | > 100 | > 100 | 59.8 | 84 | 87.2 | 47.9 | 75.8 |  | > 100 | 28.4
4 | CCCc1c(O)c2ccccc2[nH]c1=O | > 100 | > 100 | > 100 | > 100 | > 100 | > 100 | > 100 | > 100 | > 100 | > 100 | > 100 | > 100 | > 100 | > 100 |  |  |  | > 100 | > 100
5 | CC1NC(=O)c2c(-c3ccccc3)nn(-c3ccccc3)c2NC1=O (stereo not given) | > 100 | > 100 | > 100 | > 100 | > 100 | > 100 | > 100 | > 100 | > 100 | > 100 | > 100 | > 100 | > 100 | > 100 | > 100 | > 100 | > 100 | > 100 | > 100
6 | Brc1ccc(N=C/C=C(\Nc2ccc(Br)cc2)C23CC4CC(CC(C4)C2)C3)cc1 | 79.7 | 23.2 | 49.7 | 25.4 | 56.2 | 35.8 | > 46.6 | > 67 | 33.9 | 42.8 | 28.4 | 31.9 | 24.7 | > 72.8 | 37.9 | 28.3 | > 100 | 28.6 | 28.7
